Assay results reported in ChEMBL document CHEMBL4196057, “The chemical diversity and structure-based evolution of non-peptide CXCR4 antagonists with diverse therapeutic potential” (Eur J Med Chem, 2018).
Values belong to the molecule of their own block, whether it stands above or below them.

What was measured:
[1] = biological target: T1, C-X-C chemokine receptor type 4 (Homo sapiens, UniProt P61073); assay: Displacement of [125I]SDF-1alpha from CXCR4 in human MT4 cells after 2 hrs by scintillation counting analysis; assay type: cell-based
[2] = test system: Human immunodeficiency virus 1; assay: Antiviral activity against HIV1 3B infected in human MT4 cells assessed as inhibition of virus replication by MTT assay; assay type: functional, organism-based; details: Human immunodeficiency virus 1, 3B
[3] = Plasma concentration in Wistar rat at 200 mg/ml/kg administered intraduodenal after 60 mins by LC-MS analysis; assay type: ADME
[4] = Bioavailability in Wistar rat at 200 mg/ml/kg administered intraduodenal by LC-MS analysis; assay type: ADME, organism-based; details: in vivo
[5] = Cytotoxicity against human MT4 cells assessed as reduction in cell viability; assay type: cell-based
[6] = test system: Human immunodeficiency virus 1; assay: Antiviral activity against HIV1 3B infected in human MT4 cells assessed as inhibition of virus induced cytopathic effect after 5 days by MTT assay; assay type: functional, organism-based; details: Human immunodeficiency virus 1, 3B, MT4, 120 h
[7] = test system: Human immunodeficiency virus 1; assay: Antiviral activity against HIV1 3B; assay type: functional, organism-based; details: Human immunodeficiency virus 1, 3B
[8] = test system: Human immunodeficiency virus; assay: Antiviral activity against HIV R4; assay type: functional, organism-based; details: Human immunodeficiency virus 1, R4
[9] = biological target: T1, C-X-C chemokine receptor type 4; assay: Antagonist activity at CXCR4 (unknown origin); assay type: functional
[10] = test system: Human immunodeficiency virus 1; assay: Antiviral activity against HIV1 assessed as inhibition of virus induced cytopathic effect; assay type: functional, organism-based
[11] = test system: Human immunodeficiency virus 1; assay: Antiviral activity against HIV1 infected in human PBMC measured at 7 to 10 days post infection by ELISA; assay type: functional, organism-based; details: Human immunodeficiency virus 1, PBMC
[12] = biological target: T1, C-X-C chemokine receptor type 4; assay: Inhibition of SDF-1 binding to CXCR4 (unknown origin)
[13] = biological target: T1, C-X-C chemokine receptor type 4; assay: Inhibition of SDF-1 binding to CXCR4 (unknown origin) at 10 uM relative to control
[14] = test system: Human immunodeficiency virus 1; assay: Antiviral activity against HIV1 NL4-3 infected in human PBMC after 1 hr by ELISA; assay type: functional, organism-based; details: Human immunodeficiency virus 1, NL4-3, PBMC
[15] = test system: Human immunodeficiency virus 1; assay: Antiviral activity against HIV1 R5/X4 infected in human PBMC after 1 hr by ELISA; assay type: functional, organism-based; details: Human immunodeficiency virus 1, R5/X4, PBMC
[16] = test system: Human immunodeficiency virus 1; assay: Antiviral activity against HIV1 3B infected in human PBMC after 1 hr by ELISA; assay type: functional, organism-based; details: Human immunodeficiency virus 1, 3B
[17] = test system: Human immunodeficiency virus 1; assay: Antiviral activity against HIV1 R5 infected in human PBMC after 1 hr by ELISA; assay type: functional, organism-based; details: Human immunodeficiency virus 1, R5, PBMC
[18] = biological target: T1, C-X-C chemokine receptor type 4; assay: Displacement of [125I]SDF-1 from human CXCR4 expressed in HEK293 cell membranes after 1.5 hrs by Topcount method

T1 sequence (P61073 whole entry): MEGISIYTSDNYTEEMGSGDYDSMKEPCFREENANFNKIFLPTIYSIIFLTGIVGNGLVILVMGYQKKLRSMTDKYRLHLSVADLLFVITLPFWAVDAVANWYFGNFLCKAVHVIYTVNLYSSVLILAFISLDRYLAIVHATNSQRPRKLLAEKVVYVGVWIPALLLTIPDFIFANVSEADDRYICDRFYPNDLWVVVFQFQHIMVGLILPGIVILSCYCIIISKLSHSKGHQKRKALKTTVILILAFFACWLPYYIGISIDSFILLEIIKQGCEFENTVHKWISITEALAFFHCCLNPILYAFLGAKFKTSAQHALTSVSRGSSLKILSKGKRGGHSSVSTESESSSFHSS

Structure (SMILES): c1cc(CN2CCCNCCNCCCNCC2)ccc1CNCCCN1CCOCC1
- EC50 [6]: 134 nM

Structure (SMILES): C1CNCCNCCCN(CCCN2CCCNCCNCCCNCC2)CCNC1
- EC50 [7]: 248 nM

Structure (SMILES): C1CNCCNCCCNC(C2CNCCCNCCNCCCN2)CNC1 (centres undefined)
- EC50 [7]: 144 nM

Structure (SMILES): CCCN(CCC)CCCCN(C)Cc1ccc(CN(Cc2ncc[nH]2)Cc2nccn2C)cc1
- EC50 [11]: 0.3 to 1 nM

Structure (SMILES): CC(C)CN(CCC[C@H](NC(=O)c1ccc(CNCc2ncc[nH]2)cc1)C(=O)N[C@@H](C)c1cccc2ccccc12)CC(C)C
- EC50 [6]: 6.7 nM

Structure (SMILES): CC1CCCCN1CCCNCc1ccc(CNCCCN2CCCCC2C)cc1 (centres undefined)
- EC50 [6]: 19.3 nM

Structure (SMILES): CC(NC[C@@H]1CCN(CCc2c[nH]c3ccc(-n4cnnc4)cc23)C1)c1ccccc1 (some centres undefined)
- IC50 [12]: 7 to 20 nM

Structure (SMILES): c1cc(CN2CCCNCCNCCCNCC2)ccc1CN1CCCNCCNCCCNCC1 [PLERIXAFOR]
- EC50 [7]: 3 nM

Structure (SMILES): CCCN(CCC)CCCCNCc1ccc(CN(Cc2ncc[nH]2)Cc2ncc[nH]2)cc1
- EC50 [11]: 2 nM

Structure (SMILES): Nc1cc(N2CCNCC2)nc(NCc2ccc(CNCCCNC3CCCCC3)cc2)n1
- IC50 [9]: < 20 nM

Structure (SMILES): c1ccc(CN2CCC(Nc3nccc(N4CCCCCC4)n3)C2)cc1 (centres undefined)
- inhibition [13]: > 50%

Structure (SMILES): Clc1cc(CN2CCCNCCNCCCNCC2)cc(Cl)n1
- IC50 [14]: 1200 to 26500 nM
- IC50 [15]: 1200 to 26500 nM
- IC50 [16]: 1200 to 26500 nM
- IC50 [17]: 1200 to 26500 nM

Structure (SMILES): NCCNc1nccc(N2CCCCCC2)n1
- inhibition [13]: > 50%

Structure (SMILES): CC(C)(NC[C@@H]1CCN(CCc2c[nH]c3ccc(-n4cnnc4)cc23)C1)c1ccccc1
- IC50 [12]: 7 to 20 nM

Structure (SMILES): CCCN(CCC)Cc1ccc(NC(=O)c2ccc(CN(Cc3ncc[nH]3)Cc3ncc[nH]3)cc2)cc1
- EC50 [11]: 2 nM

Structure (SMILES): CC(C)CN(CCCCNC(=O)c1ccc(CN(Cc2ncc[nH]2)Cc2ncc[nH]2)cc1)CC(C)C
- EC50 [11]: 3 nM

Structure (SMILES): CCN(CC)CCCC(C)Nc1cc(/C=C/c2ccc([N+](=O)[O-])cc2)nc2cc(OC)ccc12 (centres undefined)
- IC50 [18]: 2160 nM

Structure (SMILES): c1ccc(CNCCN(CCNCc2ccccn2)Cc2ccc(CNCc3nc4ccccc4[nH]3)cc2)nc1
- IC50 [9]: 4 to 100 nM

Structure (SMILES): COc1ccc2[nH]c(CNCc3ccc(CN(CCNCc4ccccn4)CCNCc4ccccn4)cc3)nc2c1
- IC50 [9]: 4 to 100 nM

Structure (SMILES): c1ccc(CCNC[C@@H]2CCN(CCc3c[nH]c4ccc(-n5cnnc5)cc34)C2)cc1
- IC50 [12]: 7 to 20 nM

Structure (SMILES): CN(CCc1ccccc1)C[C@@H]1CCN(CCc2c[nH]c3ccc(-n4cnnc4)cc23)C1
- IC50 [12]: 7 to 20 nM

Structure (SMILES): CC1CCCCN1CCCNCc1ccc(CN2CCCNCCNCCCNCC2)cc1 (centres undefined)
- EC50 [6]: 43.6 nM

Second part, led by results:

- IC50 [1]: 13 nM
- concentration at 1 h [3]: 30.6 µM
- bioavailability [4]: 7%
Structure (SMILES): C[C@H](NC(=O)[C@H](CCCNC(=N)N)NC(=O)c1ccc(CNCc2ccccn2)cc1)c1cccc2ccccc12
- EC50 [2]: 19.3 nM
- CC50 [5]: 400000 nM

- IC50 [8]: 200 to 50000 nM
- IC50 [9]: 600 nM
Structure (SMILES): O=C(NCCc1ccc2c(n1)NCCC2)Nc1cccc2ccccc12

- EC50 [10]: 4 nM
Structure (SMILES): c1ccc(CNCc2ccc(CN3CCNCCCOCCCNCC3)cc2)nc1

- IC50 [8]: 200 to 50000 nM
- IC50 [9]: 800 nM
Structure (SMILES): CC(C)c1ccccc1NC(=O)NCCc1ccc2c(n1)NCCC2

- IC50 [8]: 200 to 50000 nM
- IC50 [9]: 680 nM
Structure (SMILES): COc1ccc(NC(=O)NCCc2ccc3c(n2)NCCC3)cc1OC

- EC50 [10]: 9 nM
Structure (SMILES): c1ccc(CNCc2ccc(CN3CCCNCCNCCCNCC3)cc2)nc1

- IC50 [8]: 200 to 50000 nM
- IC50 [9]: 400 nM
Structure (SMILES): Cn1ccc2c(NC(=O)NCCc3ccc4c(n3)NCCC4)cccc21

- EC50 [10]: 1 nM
Structure (SMILES): c1ccc(CNCc2ccc(CN3CCNCCc4cccc(n4)CCNCC3)cc2)nc1

- IC50 [9]: < 20 nM
Structure (SMILES): CN1CCN(c2cc(N)nc(NCc3ccc(CNCCCNC4CCCCC4)cc3)n2)CC1

- IC50 [8]: 200 to 50000 nM
- IC50 [9]: 600 nM
Structure (SMILES): O=C(NCCc1ccc2c(n1)NCCC2)Nc1ccc(C(F)(F)F)cc1

- IC50 [12]: 11 nM
Structure (SMILES): Cc1ccsc1CN1CCC2(CC1)CCN(Cc1ccc(C(=O)N(Cc3ncc[nH]3)Cc3ncc[nH]3)cc1)C2

- IC50 [12]: < 1000 nM
Structure (SMILES): CC(C)Oc1ccc(-c2ccc3ccn(CC(=O)NCCN(C)C4CCCCC4)c3c2)cc1

- IC50 [8]: 200 to 50000 nM
- IC50 [9]: 200 nM
Structure (SMILES): FC(F)(F)c1ccc(NC(=S)NCCc2ccc3c(n2)NCCC3)cc1

- IC50 [18]: 36.2 nM
Structure (SMILES): c1ccc2c(NC3CCNCC3)nc(NCc3ccc(CNCCCNC4CCCCC4)cc3)nc2c1
